The text below walks through data of patent US9815796B2 (Merck Sharp & Dohme Corp., priority 2013, dated 2017).

The assay concerns the target Rhesus PDE2A3 (Macaca mulatta, UniProt B3VTJ2). Put plainly: PDE2 fluorescence polarization (IMAP FP) inhibition assay, rhesus enzyme. It counts as biochemical, rhesus macaque. In outline: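 Rhesus PDE2A3 came from lysate of transiently transfected AD293 cells, diluted to give 20% substrate conversion. Substrate was 50 nM FAM-cAMP with 1 uM cGMP activator in Tris pH 7.2/MgCl2 buffer, run 60 min at room temperature over 10-point 3-fold dilutions in 1% DMSO. Read-out was IMAP fluorescence polarization (mP) after ≥1 h binding.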
A general note: In fluorescence polarisation assays a small probe gives low polarisation when free and higher when bound to something large.

The mark [1] stands for this setting: Rhesus PDE2, Lab A, read-out: Rhesus PDE2 Ki (nM) - Lab A.
[2] abbreviates: Rhesus PDE2, Lab B, read-out: Rhesus PDE2 Ki (nM) - Lab B.

Where two headings read alike, the source gives them in different places.

Rhesus PDE2A3, sequence (B3VTJ2 1-941): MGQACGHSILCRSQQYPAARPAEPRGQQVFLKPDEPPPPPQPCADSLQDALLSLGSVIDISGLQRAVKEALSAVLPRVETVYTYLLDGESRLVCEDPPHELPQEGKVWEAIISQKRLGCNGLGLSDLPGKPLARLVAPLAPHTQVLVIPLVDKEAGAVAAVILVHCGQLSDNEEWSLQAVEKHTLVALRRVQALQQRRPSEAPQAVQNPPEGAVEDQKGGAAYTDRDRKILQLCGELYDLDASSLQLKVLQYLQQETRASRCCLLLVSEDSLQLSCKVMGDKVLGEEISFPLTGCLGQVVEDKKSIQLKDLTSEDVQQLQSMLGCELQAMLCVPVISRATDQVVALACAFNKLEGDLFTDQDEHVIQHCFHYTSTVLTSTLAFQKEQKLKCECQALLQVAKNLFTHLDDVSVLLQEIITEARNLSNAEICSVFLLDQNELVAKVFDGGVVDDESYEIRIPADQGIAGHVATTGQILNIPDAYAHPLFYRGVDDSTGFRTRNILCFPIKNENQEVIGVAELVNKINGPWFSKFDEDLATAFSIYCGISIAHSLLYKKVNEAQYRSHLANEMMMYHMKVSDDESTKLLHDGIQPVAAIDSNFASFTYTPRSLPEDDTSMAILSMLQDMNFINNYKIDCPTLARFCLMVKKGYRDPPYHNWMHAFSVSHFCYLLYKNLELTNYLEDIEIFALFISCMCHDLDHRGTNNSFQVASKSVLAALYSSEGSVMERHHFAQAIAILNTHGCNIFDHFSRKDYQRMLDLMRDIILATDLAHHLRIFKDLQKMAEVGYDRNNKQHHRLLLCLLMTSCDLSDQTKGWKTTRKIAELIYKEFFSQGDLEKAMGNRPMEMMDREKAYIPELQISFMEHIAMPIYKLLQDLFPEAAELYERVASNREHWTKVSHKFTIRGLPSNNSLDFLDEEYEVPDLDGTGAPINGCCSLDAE

The Ki is the dissociation constant of the complex between target and ligand, obtained from inhibition or displacement. Turning to `CC(NC(=O)c1cc(=O)[nH]c(-c2ccccc2)n1)c1ccc(F)cc1` (centres unmarked) [Example 343, N-[1-(4-fluorophenyl)ethyl]-6-oxo-2-phenyl-1,6-dihydropyrimidine-4-carboxamide], the inhibition constant Ki was roughly 601 nM under setting [1] and 682 nM under setting [2].

As for `COc1ccc(C(C)(C)c2nc(C(=O)N[C@@H](c3ccc(C(F)(F)F)c(F)c3)C3CC3)cc(=O)[nH]2)cc1` [Example 499, N-{(R)-cyclopropyl[3-fluoro-4-(trifluoromethyl)phenyl]methyl}-2-[1-(4-methoxyphenyl)-1-methylethyl]-6-oxo-1,6-dihydropyrimidine-4-carboxamide], the Ki under setting [2] was 115 nM.

Consider `CC(C)(NC(=O)c1cc(=O)[nH]c(-c2ncccn2)n1)c1ccc(OC(F)(F)F)c(F)c1` [Example 71, N-{1-[3-fluoro-4-(trifluoromethoxy)phenyl]-1-methylethyl}-6-oxo-1,6-dihydro-2,2′-bipyrimidine-4-carboxamide], for which, under setting [1], the Ki came out at 1570 nM.

As for `C[C@H](O)[C@@H](NC(=O)c1cc(=O)[nH]c(-c2ncccn2)n1)c1ccc(C(F)(F)F)cc1` [Example 430, N-{(1S,2)S-2-hydroxy-1-[4-(trifluoromethyl)phenyl]propyl}-6-oxo-1,6-dihydro-2,2′-bipyrimidine-4-carboxamide], the Ki under setting [2] is greater than 2970 nM.

`O=C(NCc1c(Cl)cc(C(F)(F)F)cc1Cl)c1cc(=O)[nH]c(C2CC2)n1` [Example 239, 2-cyclopropyl-N-[2,6-dichloro-4-(trifluoromethyl)benzyl]-6-oxo-1,6-dihydropyrimidine-4-carboxamide]: under setting [1], the Ki was 3070 nM.

For `C[C@@H](NC(=O)c1cc(=O)[nH]c(-c2ccccc2)n1)c1ccc(C(F)(F)F)c2ccccc12` [Example 153], under “Rhesus PDE2, Lab A, at 1 uM”, the “Rhesus PDE2 % inh. at 1 uM - Lab A” value is given as 41 % inh. Further, the inhibition constant Ki is greater than 1000 nM under setting [1] and roughly 1970 nM under setting [2].

With `COC(=O)c1ccc(C(C)(C)NC(=O)c2cc(=O)[nH]c(C3CC3)n2)cc1` [Example 215, methyl 4-(1-{[(2-cyclopropyl-6-oxo-1,6-dihydropyrimidin-4-yl)carbonyl]amino}-1-methylethyl)benzoate], the inhibition constant (Ki) under setting [1] turned out to be 967 nM.

For the compound `CC(NC(=O)c1cc(=O)[nH]c(-c2ccccc2)n1)c1ccccc1-c1ccccc1` (centres unmarked) [Example 416, N-(1-biphenyl-2-ylethyl)-6-oxo-2-phenyl-1,6-dihydropyrimidine-4-carboxamide], the Ki under setting [2] came to 1770 nM.

With `O=C(N[C@@H]1CCCc2cc(C(F)(F)F)ccc21)c1cc(=O)[nH]c(-c2ncccn2)n1` [Example 433, 6-oxo-N-[(1R)-6-(trifluoromethyl)-1,2,3,4-tetrahydronaphthalen-1-yl]-1,6-dihydro-2,2′-bipyrimidine-4-carboxamide], the Ki under setting [2] is roughly 1430 nM.

For `CC(C)(NC(=O)c1cc(=O)[nH]c(-c2ncccn2)n1)c1ccc(S(F)(F)(F)(F)F)cc1` [Example 678, N-{1-methyl-1-[4-(pentafluoro-λ^6-sulfanyl)phenyl]ethyl}-6-oxo-1,6-dihydro-2,2′-bipyrimidine-4-carboxamide], under setting [2], the Ki is 501 nM.

`CC(NC(=O)c1cc(=O)[nH]c(-c2ccccc2)n1)c1ccc(C(F)(F)F)nc1` (centres unmarked) [Example 356, 6-oxo-2-phenyl-N-{1-[6-(trifluoromethyl)pyridin-3-yl]ethyl}-1,6-dihydropyrimidine-4-carboxamide]: the Ki is, setting by setting: under setting [1], 345 nM; under setting [2], 490 nM.

With `C[C@@H](NC(=O)c1cc(=O)[nH]c(C(C)(C)n2cccn2)n1)c1ccc(C(F)(F)F)cc1` [Example 7, 2-[1-methyl-1-(1H-pyrazol-1-yl)ethyl]-6-oxo-N-{(1R)-1-[4-(trifluoromethyl)phenyl]ethyl}-1,6-dihydropyrimidine-4-carboxamide], the Ki under setting [1] worked out at 2780 nM.

Take `CC(NC(=O)c1cc(=O)[nH]c(-c2ccccc2)n1)c1cccc(Cl)c1` (centres unmarked) [Example 368, N-[1-(3-chlorophenyl)ethyl]-6-oxo-2-phenyl-1,6-dihydropyrimidine-4-carboxamide]: the Ki reads like this: under setting [1], roughly 880 nM; under setting [2], 1100 nM.

For the compound `Cc1cc(-c2ccc([C@@H](C)NC(=O)c3cc(=O)[nH]c(C)n3)cc2)ccn1` [Example 319, 2-methyl-N-{(1R)-1-[4-(2-methylpyridin-4-yl)phenyl]ethyl}-6-oxo-1,6-dihydropyrimidine-4-carboxamide], the Ki under setting [1] stood at 1490 nM.

Turning to `CC(NC(=O)c1cc(=O)[nH]c(-c2ccccc2)n1)c1cccc(-c2ccc(F)cc2)c1` (centres unmarked) [Example 396, N-[1-(4′-fluorobiphenyl-3-yl)ethyl]-6-oxo-2-phenyl-1,6-dihydropyrimidine-4-carboxamide], the Ki under setting [2] was roughly 20300 nM.

With `C[C@H](c1ccc(C(F)(F)F)cc1)N(C)C(=O)c1cc(=O)[nH]c(C2CC2)n1` [Example 209], the Ki under setting [1] was found to be 17400 nM.

As to `Cc1nc(C(=O)NC(C)(c2ccc(S(F)(F)(F)(F)F)cc2)C(C)C)cc(=O)[nH]1` (single isomer, unassigned) [Example 662, (S)- or (R)-N-{1,2-dimethyl-1-[4-(pentafluoro-λ^6-sulfanyl)phenyl]propyl}-2-methyl-6-oxo-1,6-dihydropyrimidine-4-carboxamide], the Ki under setting [2] was roughly 1220 nM.

`Cc1nc(C(=O)N[C@H](C)c2ccc(S(=O)(=O)C(F)(F)F)cc2)cc(=O)[nH]1` [Example 331, 2-Methyl-6-oxo-N-[(1R)-1-{4-[(trifluoromethyl)sulfonyl]phenyl}ethyl]-1,6-dihydropyrimidine-4-carboxamide]: the Ki under setting [1] is 304 nM.

On to `Cc1nc(C(=O)NC(c2ccccc2)c2ccc(C(F)(F)F)cc2)cc(=O)[nH]1` (centres unmarked) [Example 34, 2-methyl-6-oxo-N-{phenyl[4-(trifluoromethyl)phenyl]methyl}-1,6-dihydropyrimidine-4-carboxamide], for which the Ki under setting [1] came to 1420 nM.

In the case of `Cc1cc(C(F)(F)F)ccc1C(C)NC(=O)c1cc(=O)[nH]c(-c2ncccn2)n1` (centres unmarked) [Example 90, N-{1-[2-methyl-4-(trifluoromethyl)phenyl]ethyl}-6-oxo-1,6-dihydro-2,2′-bipyrimidine-4-carboxamide], under setting [1], the Ki amounted to 732 nM.

Consider `CC(C)(NC(=O)c1cc(=O)[nH]c(-c2ccccc2)n1)c1ccccc1` [Example 390, N-(1-methyl-1-phenylethyl)-6-oxo-2-phenyl-1,6-dihydropyrimidine-4-carboxamide], for which the Ki under setting [2] is 1700 nM.

As for `Cc1nc(C(=O)NC(C)(C)c2ccc(S(F)(F)(F)(F)F)cc2)cc(=O)[nH]1` [Example 677, 2-methyl-N-{1-methyl-1-[4-(pentafluoro-λ^6-sulfanyl)phenyl]ethyl}-6-oxo-1,6-dihydropyrimidine-4-carboxamide], the Ki under setting [2] was found to be 129 nM.

With `COc1ccc(C(C)(C)c2nc(C(=O)N[C@@H](c3ccc(C(F)(F)F)cc3)C(C)(C)C)cc(=O)[nH]2)cc1` [Example 456, N-{(1R)-2,2-dimethyl-1-[4-(trifluoromethyl)phenyl]propyl}-2-[1-(4-methoxyphenyl)-1-methylethyl]-6-oxo-1,6-dihydropyrimidine-4-carboxamide], the Ki under setting [2] is 98 nM.

Turning to `Cc1nc(C(=O)NC(C)c2ccc(-c3ccccc3)cc2)cc(=O)[nH]1` (single isomer, unassigned) [Example 308, (S)- or (R)-N-(1-biphenyl-4-ylethyl)-2-methyl-6-oxo-1,6-dihydropyrimidine-4-carboxamide], the Ki under setting [1] amounted to 2500 nM.

As for `CN(Cc1cc(F)c(F)c(F)c1)C(=O)c1cc(=O)[nH]c(C2CC2)n1` [Example 206, 2-cyclopropyl-N-methyl-6-oxo-N-(3,4,5-trifluoromethyl)-1,6-dihydropyrimidine-4-carboxamide], the Ki under setting [1] is 24300 nM.

`Cc1nc(C(=O)N[C@@H](C)c2ccc(OC(F)F)cc2)cc(=O)[nH]1` [Example 56, (S)-N-(1-(4-(difluoromethoxy)phenyl)ethyl)-2-methyl-6-oxo-1,6-dihydropyrimidine-4-carboxamide]: the Ki under setting [1] came out at 4590 nM.

As for `O=C(NC1(c2ccc(C(F)(F)F)cc2)CCCC1)c1cc(=O)[nH]c(-c2ncccn2)n1` [Example 72, 6-oxo-N-{1-[4-(trifluoromethyl)phenyl]cyclopentyl}-1,6-dihydro-2,2′-bipyrimidine-4-carboxamide], under setting [1], the Ki came to 333 nM.

For the compound `Cc1ccc([C@H](C)NC(=O)c2cc(=O)[nH]c(-c3ccccc3)n2)cc1` [Example 364, N-[(1S)-1-(4-methylphenyl)ethyl]-6-oxo-2-phenyl-1,6-dihydropyrimidine-4-carboxamide], under setting [2], the Ki amounted to 3950 nM.

`O=C(NC(c1ccccc1)c1ccc(C(F)(F)F)cc1)c1cc(=O)[nH]c(-c2ncccn2)n1` (centres unmarked) [Example 78, 6-oxo-N-{phenyl[4-(trifluoromethyl)phenyl]methyl}-1,6-dihydro-2,2′-bipyrimidine-4-carboxamide]: under setting [1], the inhibitory constant (Ki) was 1080 nM.

On to `Cc1nc(C(=O)N[C@@H](c2ccc(C(F)(F)F)cc2)[C@H](C)O)cc(=O)[nH]1` [Example 64, N-((1S,2S)-2-hydroxy-1-(4-(trifluoromethyl)phenyl)propyl)-2-methyl-6-oxo-1,6-dihydropyrimidine-4-carboxamide], for which, under setting [1], the Ki is roughly 39300 nM.

`O=C(NC1(c2ccccc2OC(F)(F)F)CC1)c1cc(=O)[nH]c(-c2ccccc2)n1` [Example 380, 6-oxo-2-phenyl-N-{1-[2-(trifluoromethoxy)phenyl]cyclopropyl}-1,6-dihydropyrimidine-4-carboxamide]: under setting [2], the Ki came out at 353 nM.

For `Cc1cc(C(F)(F)F)ccc1CNC(=O)c1cc(=O)[nH]c(-c2ccccc2)n1` [Example 180, N-[2-methyl-4-(trifluoromethyl)benzyl]-6-oxo-2-phenyl-1,6-dihydropyrimidine-4-carboxamide], the Ki under setting [1] was 2050 nM.

In the case of `CC1(C(NC(=O)c2cc(=O)[nH]c(C3CC3)n2)c2ccc(SC(F)(F)F)c(F)c2)CC1` (single isomer, unassigned) [Example 705, (S)- or (R)-2-cyclopropyl-N-((3-fluoro-4-((trifluoromethyl)thio)phenyl)(1-methylcyclopropyl)methyl)-6-oxo-1,6-dihydropyrimidine-4-carboxamide], the inhibitory constant (Ki) under setting [2] came out at 1070 nM.
